Source: ChEMBL document CHEMBL5241051, “Phthalimide analogs for antimalarial drug discovery” (RSC Med Chem, 2021)
Values belong to the molecule of their own block, whether it stands above or below them.

Assays:
[1] = Inhibition of Plasmodium falciparum plasmepsin IV assessed as substrate cleavage preincubated with enzyme for 5 mins followed by substrate addition and measured immediately by spectrophotometric analysis
Plasmodium falciparum [2] = assay: Antiplasmodial activity against chloroquine sensitive Plasmodium falciparum 3D7 infected in erythrocytes (unknown origin) assessed as inhibition of parasite growth incubated for 90 hrs by SYBR green staining based fluorescence assay; format: functional, organism-based; settings: 3D7, Erythrocyte
Plasmodium falciparum [3] = assay: Antiplasmodial activity against chloroquine resistant Plasmodium falciparum W2 infected in erythrocytes (unknown origin) assessed as inhibition of parasite growth incubated for 90 hrs by SYBR green staining based fluorescence assay; format: functional, organism-based; settings: W2, Erythrocyte
Plasmodium falciparum [4] = assay: Antiplasmodial activity against Plasmodium falciparum 3D7 assessed as inhibition of parasite growth incubated for 48 hrs by SYBR green I staining based fluorescence assay; format: functional, organism-based; settings: 3D7, 48 h
Plasmodium falciparum [5] = assay: Antiplasmodial activity against chloroquine resistant Plasmodium falciparum 7GB assessed as inhibition of parasite growth incubated for 48 hrs by SYBR green I staining based fluorescence assay; format: functional, organism-based
Plasmodium berghei [6] = assay: Antimalarial activity against GFP-expressing liver stage Plasmodium berghei ANKA sporozoites infected in human HepG2 cells assessed as inhibition of parasite growth incubated for 2 days by imaging analysis; format: functional, organism-based; settings: HepG2, 48 h
[7] = Inhibition of Plasmodium falciparum plasmepsin V
Plasmodium falciparum [8] = assay: Antiplasmodial activity against chloroquine sensitive Plasmodium falciparum 3D7 assessed as reduction in [3H]-hypoxanthine incorporation by liquid scintillation beta counter analysis; format: functional, organism-based
[9] = Cytotoxicity against human PBMC cells assessed as inhibition of cell growth incubated for 24 hrs by Celltiter-Glo assay; format: toxicity, cell-based
Plasmodium berghei [10] = assay: Antimalarial activity against GFP-expressing Plasmodium berghei ANKA infected in mouse assessed as survival rate at 50 mg/kg, sc pre-infected for 2 hrs followed by compound addition; format: functional
Plasmodium falciparum [11] = assay: Antiplasmodial activity against chloroquine sensitive Plasmodium falciparum D6 infected in erythrocytes (unknown origin) incubated for 72 hrs by SYBR green I staining based fluorescence assay; format: functional, organism-based; settings: D6, Erythrocyte
[12] = Cytotoxicity against human U-937 cells assessed as inhibition of cell growth incubated for 24 hrs by Celltiter-Glo assay; format: toxicity, cell-based
Plasmodium falciparum [13] = assay: Antiplasmodial activity against multidrug resistant Plasmodium falciparum Dd2 infected in erythrocytes (unknown origin) incubated for 72 hrs by SYBR green I staining based fluorescence assay; format: functional, organism-based; settings: Dd2, Erythrocyte
Plasmodium berghei [14] = assay: Antimalarial activity against chloroquine resistant Plasmodium berghei NK-65 infected RBC infected in Swiss albino mouse assessed as survival rate at 100 mg/kg, sc pre-infected for 48 hrs followed by compound addition for 4 days in the presence of artemisinin; format: functional; settings: time 4 day
[15] = Inhibition of Plasmodium falciparum plasmepsin II assessed as substrate cleavage preincubated with enzyme for 5 mins followed by substrate addition and measured immediately by spectrophotometric analysis
[16] = Inhibition of Plasmodium falciparum plasmepsin X
Plasmodium falciparum [17] = assay: Antiplasmodial activity against Plasmodium falciparum RKL-9 stage I-V gametocytes assessed as reduction in parasitemia incubated for 72 hrs by giemsa staining based analysis; settings: RKL-9, 72 h
Plasmodium falciparum [18] = assay: Antiplasmodial activity against Plasmodium falciparum 3D7 infected in erythrocytes (unknown origin) assessed as inhibition of parasite growth by SYBR green staining based fluorescence assay; format: functional, organism-based; settings: 3D7, Erythrocyte
Plasmodium falciparum [19] = assay: Inhibition of Plasmodium falciparum 3D7 cytochrome bc1 oxidoreductase using decylubiquinol as substrate at 70 uM relative to control
[20] = Selectivity index, ratio of CC50 for cytotoxicity against human HepG2 cells to IC50 for […] activity against Plasmodium falciparum 3D7; format: toxicity, cell-based; settings: read-out: Ratio CC50/IC50
[21] = Cytotoxicity against human HepG2 cells assessed as reduction in cell viability incubated for 24 hrs by MTT assay; format: toxicity, cell-based

SMILES: CC(C)[C@H](C(=O)N[C@H](Cc1ccccc1)[C@@H](O)CN1CCN(C[C@H](O)[C@@H](Cc2ccccc2)NC(=O)[C@@H](C(C)C)N2C(=O)c3ccccc3C2=O)CC1)N1C(=O)c2ccccc2C1=O
- Ki [1]: 3300 nM

SMILES: CC(C)CC(c1nc2ccccc2n1Cc1cnnn1-c1ccccc1)N1C(=O)c2ccccc2C1=O (stereo not drawn)
- IC50 (Plasmodium falciparum [2]): 900 nM
- IC50 (Plasmodium falciparum [3]): 700 nM

SMILES: CC(C)[C@@H](C(=O)N[C@H](Cc1ccccc1)[C@@H](O)CN1CCN(Cc2ccc(Br)cc2)CC1)N1C(=O)c2ccccc2C1=O
- IC50 (Plasmodium falciparum [4]): 1250 nM

SMILES: CC(C)(C)OC(=O)N[C@H](Cc1ccccc1)[C@@H](O)CN1CCC(N2CCCCC2)CC1
- IC50 (Plasmodium falciparum [4]): 1160 nM
- IC50 (Plasmodium falciparum [5]): 2990 nM

SMILES: Cc1ccc2c(c1)C(=O)N(C(Cc1ccccc1)C(=O)NC(Cc1ccccc1)C(O)CN1CCN(CC(O)C(Cc3ccccc3)NC(=O)C(Cc3ccccc3)N3C(=O)c4ccc(C)cc4C3=O)CC1)C2=O (stereo not drawn)
- IC50 (Plasmodium berghei [6]): 2100 nM
- Ki [7]: 530 nM
- IC50 (Plasmodium falciparum [8]): 1310 nM
- CC50 at 24 h [9]: 11100 nM
- Survival (Plasmodium berghei [10]): 20 days
- IC50 (Plasmodium falciparum [11]): 910 nM
- CC50 at 24 h [12]: 26400 nM
- IC50 (Plasmodium falciparum [13]): 600 nM
- Ki [1]: 252 nM
- Survival (Plasmodium berghei [14]): 15 days
- Ki [15]: 112 nM
- Ki [16]: 3830 nM
- IC50 (Plasmodium falciparum [17]): 1680 nM

SMILES: CC[C@H](C)[C@@H](C(=O)N[C@H](Cc1ccccc1)[C@@H](O)CN1CCN(C[C@H](O)[C@@H](Cc2ccccc2)NC(=O)[C@H]([C@@H](C)CC)N2C(=O)c3ccccc3C2=O)CC1)N1C(=O)c2ccccc2C1=O
- Ki [15]: 990 nM

SMILES: CC(C)CC(c1nc2ccccc2n1Cc1cnn[nH]1)N1C(=O)c2ccccc2C1=O (stereo not drawn)
- IC50 (Plasmodium falciparum [2]): 700 nM
- IC50 (Plasmodium falciparum [3]): 900 nM

SMILES: O=C(N[C@H](Cc1ccccc1)[C@@H](O)CN1CCN(C[C@H](O)[C@@H](Cc2ccccc2)NC(=O)[C@@H](Cc2ccccc2)N2C(=O)c3ccccc3C2=O)CC1)[C@@H](Cc1ccccc1)N1C(=O)c2ccccc2C1=O
- IC50 (Plasmodium falciparum [4]): 1300 nM
- IC50 (Plasmodium falciparum [5]): 2990 nM

- inhibition (Plasmodium falciparum [19]): 74%
SMILES: COc1ccc(N2C(=O)c3cccc(N)c3C2=O)cc1
- IC50 (Plasmodium falciparum [18]): 4200 nM
- selectivity ratio [20]: > 36
- CC50 at 24 h [21]: > 250000 nM

SMILES: O=C(N[C@H](Cc1ccccc1)[C@@H](O)CN1CCN(Cc2ccc(F)cc2)CC1)[C@@H](Cc1ccccc1)N1C(=O)c2ccccc2C1=O
- IC50 (Plasmodium falciparum [4]): 1330 nM
- IC50 (Plasmodium falciparum [5]): 2990 nM

SMILES: COc1ccc(N2C(=O)c3cccc(NCc4ccccc4)c3C2=O)cc1
- IC50 (Plasmodium falciparum [18]): 6800 nM
- selectivity ratio [20]: > 59
- CC50 at 24 h [21]: > 250000 nM
